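Dose response: 5 concentrations. Exposure: 48 h. Format: 96-well plates. Endpoint: linear interpolation; highest concentration if not reached. The concentration for 50% growth inhibition is given as GI50. TGI: concentration producing complete growth inhibition.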
Columns and labels:
Experiment in all cases: growth of human tumour cells (NCI), 48 h
HOP-62 NSCLC = test system: HOP-62 NSCLC
MALME-3M melanoma = test system: MALME-3M melanoma
SK-MEL-28 melanoma = test system: SK-MEL-28 melanoma
SR leukemia = test system: SR leukemia
DU-145 prostate = test system: DU-145 prostate
TK-10 renal = test system: TK-10 renal
PC-3 prostate = test system: PC-3 prostate
SK-MEL-2 melanoma = test system: SK-MEL-2 melanoma
SF-539 CNS = test system: SF-539 CNS
SNB-75 CNS = test system: SNB-75 CNS

Row | SMILES | TGI (HOP-62 NSCLC) [µM] | TGI (MALME-3M melanoma) [µM] | TGI (SK-MEL-28 melanoma) [µM] | TGI (SR leukemia) [µM] | TGI (DU-145 prostate) [µM] | TGI (TK-10 renal) [µM] | TGI (PC-3 prostate) [µM] | TGI (SK-MEL-2 melanoma) [µM] | TGI (SF-539 CNS) [µM] | TGI (SNB-75 CNS) [µM] | GI50 (SK-MEL-28 melanoma) [µM] | GI50 (SF-539 CNS) [µM] | GI50 (DU-145 prostate) [µM] | GI50 (TK-10 renal) [µM] | GI50 (PC-3 prostate) [µM] | GI50 (SK-MEL-2 melanoma) [µM] | GI50 (SNB-75 CNS) [µM]
1 | COc1ccc(/C=C2/C(=O)N(C(=O)c3ccccc3O)N=C2C)cc1OC | > 20.8 | > 100 | > 100 | > 100 | > 100 | > 100 | > 100 | > 30.9 |  |  |  |  |  |  |  |  | 
2 | COCCc1c(C)c(C#N)c2n(C)c3ccccc3n2c1=O | > 10 | > 10 | > 10 | > 10 | > 10 | > 10 | > 10 | > 10 | > 10 | > 10 |  |  |  |  |  |  | 
3 | O=C1CCc2c3c(c4c([nH]c5ccccc54)c2CC1)C(=O)NC3=O | > 100 | 12.6 | 12 |  | 42.9 | 39.6 | 70.6 | 17.1 | > 100 | 0.61 |  |  |  |  |  |  | 
4 | CCN(CC)CC(O)c1ccc2ccc3ccccc3c2c1 (stereo not given) | 29.6 | 34 | 34.6 | 24.8 | 33 | 29.9 | 30.1 | 30.9 | 25.8 | 33.5 |  |  |  |  |  |  | 
5 | CCN(CC)CCN1c2ccccc2Sc2ccc3ccccc3c21 | 29 | 32.5 | 20.2 | 20.9 | 12.3 | 23.9 | 19.5 | 27.9 | 29.7 | 19.9 |  |  |  |  |  |  | 
6 | O=C(O)CC(NC(=O)C(F)(F)F)C(=O)NC1Cc2ccccc2OC1=O (stereo not given) | > 100 | > 100 | > 100 | > 100 | > 100 | > 100 | > 100 | > 100 | > 100 | > 100 |  |  |  |  |  |  | 
7 | CCCCC1Cc2cc(O)ccc2-c2n1c1cc(O)ccc1[n+]2C (stereo not given) (tested in a mixture with another compound) | > 100 | 73.4 | 74.3 | > 100 | > 100 | > 100 | > 100 | > 100 | > 100 | > 100 |  |  |  |  |  |  | 
8 | C/C(Cl)=N\OC(=O)Nc1ccc([N+](=O)[O-])cc1 | > 100 | 7.95 | 31.5 | 74.2 | 31.8 | 27.8 | 29.9 | 32.5 | 31.8 | 31.4 |  |  |  |  |  |  | 
9 | CCN(CC)CCn1ncc2ccc3c(c(=O)c4cccnc4n3CCN(CC)CC)c21 | 3.38 | 3.32 | 4.01 | 1.3 | > 8.66 | > 10 | 3.85 | 3.51 | 1.95 | 2.81 |  |  |  |  |  |  | 
10 | C1CNCCN2CCCNCCN(C1)CC2 | > 100 | > 100 | > 100 | > 100 | > 100 | > 100 | > 100 | > 100 | > 100 | > 100 |  |  |  |  |  |  | 
11 | C=CCCCCOC1C=CC(OC(C)=O)C(COC(C)=O)O1 (stereo not given) | > 100 | > 100 | > 100 |  | > 100 | > 100 | > 100 | > 100 | > 100 |  |  |  |  |  |  |  | 
12 | CCCCCCCCCc1cc(O)c(O)cc1CCCCCCCCC | > 10 | > 10 | > 10 | > 10 | > 10 | > 10 | > 10 | > 10 | > 10 | > 10 |  |  |  |  |  |  | 
13 | CSC1=N/C(=C\c2cccs2)C(=O)N1CN1CCOCC1 | > 100 | > 100 | > 100 | > 100 | > 100 | > 100 | > 100 | > 100 |  | > 100 |  |  |  |  |  |  | 
14 | CCN(CC)CCNc1ccc([N+](=O)[O-])c2nc3ccccc3c(N)c12 | > 10 |  |  | 2.39 | > 10 | > 10 | 1.74 | 0.955 | 1.84 | 2.39 |  |  |  |  |  |  | 
15 | COc1ccc2c(c1)/C(=C(\C(Cl)=C(Cl)Cl)[N+](=O)[O-])N2 | > 100 | > 100 | > 100 | 49.3 | > 100 | > 100 | > 100 |  |  | > 100 |  |  |  |  |  |  | 
16 | C=C1CC(OC(C)=O)/C=C(/C)CCC(C(C)(C)O)CC1O (stereo not given) | > 100 | > 100 | > 100 | > 100 | > 100 | > 100 | > 100 | > 100 | > 100 |  |  |  |  |  |  |  | 
17 | NC(CCCCCP(=O)(O)O)C(=O)O (stereo not given) |  |  | > 100 | > 100 | > 100 | > 100 | > 100 | > 100 | > 100 | > 100 |  |  |  |  |  |  | 
18 | Cc1c2c(c(C)c3c[n+](C)ccc13)Oc1ccccc1O2 | 33.4 | 19.1 | 28.6 |  | > 100 | > 100 | > 76.7 | 41.2 | 22.4 | 17.5 |  |  |  |  |  |  | 
19 | O=C(CSc1nc2ccc(I)cc2c(=O)n1Cc1ccccc1)N/N=C/c1ccccc1 | 20.9 |  | > 100 | > 100 | > 100 | 36.1 | 28.6 | 35.6 | > 100 | 28.6 |  |  |  |  |  |  | 
20 | CSc1ccc2c(c1)c(CCN)c(C)n2Cc1ccc(Cl)c(Cl)c1 |  |  | 3.17 |  | 3.21 | 2.95 | 3.11 | 3.34 | 3.04 | 2.6 | 1.67 | 1.6 | 1.73 | 1.51 | 1.67 | 1.74 | 1.32
21 | C/C(CC(O)(C(F)(F)F)C(F)(F)F)=N\N | > 10 | > 10 | > 10 |  | > 10 | > 10 | > 10 | > 10 | > 10 | > 10 |  |  |  |  |  |  | 
22 | COc1cc(N=C(N)N=C(N)N)c2ncccc2c1 | > 100 | > 100 | > 100 |  | > 100 | > 100 | > 100 | > 100 | > 100 | > 100 |  |  |  |  |  |  | 
23 | CCCCCCc1nn2c(-c3ccc(C)cc3)nnc2s1 | > 100 |  | > 100 |  | > 100 | > 100 | > 100 | > 100 | > 100 | > 100 |  |  |  |  |  |  | 
